# Patent US20100190834A1, “COMPOSITION FOR OPHTALMIC DISEASE ASSOCIATED WITH HYPOXIA OR ISCHEMIA” (R-TECH UENO, LTD., priority 2007, published 2010)
# Marks after values point to notes of the source that are not given here.
# Test system: oxygen-induced retinopathy model mouse
# Assay: Oxygen-induced retinopathy model mouse (model of retinopathy of prematurity), retina flat mount analysis
# Format: in vivo, C57BL/6N mouse
# Settings: for abnormal angiogenesis region (%) / normal blood vessel region (%): average, p < 0.05 vs medium; for avascular region (result in words) / effect on abnormal angiogenesis (result in words): summary of Table 1 and Table 2, compared with medium group
# Description: A model experiment of retinopathy of prematurity, which is an ophthalmic disease associated with hypoxia or ischemia, was performed based on a quantitative analysis method of oxygen-induced retinopathy model mouse (Experimental Eye Research 84 (2007) 529-536).
# The date of birth of mouse was taken as day 0 of age. On day 7 of age, the mouse was placed in a high oxygen concentration breeding device together with the mother mouse and bred under high oxygen conditions (oxygen concentration 75±5%) up to day 12 of age. On day 12 of age, the high oxygen concentration breeding was terminated and the mouse was immediately placed under general breeding with intraperitoneal administration of the medium or test solution 1 twice a day for 7 days. On day 19 of age, retina flat mount was prepared from 4 mice out of the litter.
# The mice were anesthetized by intraperitoneal administration of nembutal (1/10-fold diluted, 5 mg/mL) at 0.1 mL/mouse. The thoracic cavity was opened, and 1 mL of fluorescein isothiocyanate-dextran (FITC-dextran 20 mg/mL, FD2000S-1G, manufactured by SIGMA) was perfused from the heart.
# After perfusion, the eyeball was immediately isolated, and fixed with 4% para-formaldehyde for 3-4 hr. The eyeball was anatomized to isolate retina, which as developed on a slide glass to prepare a flat mount. The whole retina area, avascular region and abnormal angiogenesis region were encircled with a stylus pen (CTE-640/S1, WACOM FVO) under a fluorescence microscope (ECLIPSE 80i, manufactured by Nikon), and measured using an analysis soft (WinROOF ver. 5.7.0, MITAMI Cor.), based on which the normal blood vessel region and abnormal angiogenesis region were calculated and compared.
# normal blood vessel region (%): [{(whole retina area)−(area of avascular region)}/(whole retina area)]×100
# abnormal angiogenesis region (%): {(abnormal angiogenesis region)/(whole retina area)}×100
# In the same manner as in Experimental Example 1 except that test solution 2 was administered once a day, test solution 2 was intraperitoneally administered to model mouse for 7 days, and the normal blood vessel region and abnormal angiogenesis region thereof were measured.
# [1] = test solution 1 (0.01 mg/mL) intraperitoneal twice a day for 7 days from day 12 of age, retina flat mount on day 19, 12 eyes
# [2] = test solution 2 (0.01 mg/mL) intraperitoneal once a day for 7 days, 18 eyes
smiles,measurement,setting,value
"CC(=O)Nc1nc(CCc2ccc(CC(=O)NN)cc2)cs1 [test substance 1, N-{4-[2-(4-hydrazinocarbonylmethylphenyl)ethyl]-1,3-thiazol-2-yl}acetamide]",abnormal angiogenesis region (%),[1],7.04* %
same,normal blood vessel region (%),[1],93.44* %
same,avascular region (result in words),,a decrease in the avascular region
same,effect on abnormal angiogenesis (result in words),,a suppressive effect on abnormal angiogenesis
"CC(=O)Nc1nc(CCc2ccc(CCNC(=N)N)cc2)cs1 [test substance 2, N-(4-{2-[4-(2-{[amino(imino)methyl]amino}ethyl)phenyl]ethyl}-1,3-thiazol-2-yl)acetamide]",abnormal angiogenesis region (%),[2],6.79* %
same,normal blood vessel region (%),[2],94.69* %
same,avascular region (result in words),,a decrease in the avascular region
same,effect on abnormal angiogenesis (result in words),,a suppressive effect on abnormal angiogenesis
